This is an account of results in US20050131061A1, “Angiogenesis inhibitors” (Mercian Corporation, priority 2002, published 2005).

One series has as its system HT1080 (fibrosarcoma). The experiment in a line: Toxicity to cultivated human cancer cells, MTT growth inhibition. Format: cell-based. To be noted: 72 hours. The method, then: (§1) Note that the tests were performed as follows. Various kinds of human cancer cells (K562 (leukemia), H226 (lung cancer), DLD-1 (prostate cancer) and HT1080 (fibrosarcoma)) were suspended in RPMI1640 medium or DMEM medium containing 10% fetal calf serum and each adjusted to 5×10^3 cells/well, and 0.1 ml of this was seeded on a 96-well microplate. At the same time, a suitable amount of each of the substances F-1491 (substances F-1491A to F-1491H) was added and the resultant was cultivated at 37° C. for 72 hours in an atmosphere containing 5% CO2. Further, 10 μl of 0.5% MTT (3-[4,5-dimethylthiazol-2-yl]2,5-[…] tetrazolium bromide) was added and the resultant was cultivated for 4 hours. After the cultivation, 0.1 ml of 10% SDS-0.01N hydrochloric acid was added and absorbance at 570 nm was measured to determine 50% growth inhibition concentration.

A further series has as its system K562 (leukemia). The series is described as above. The settings on record: 72 hours. In kind it is cell-based. The method, then: as §1
The test system of another series is H226 (lung cancer). The description is as above. Format: cell-based. The settings on record: 72 hours. The method, then:
as §1

The next series relates to DLD-1 (prostate cancer). Described as above. In kind it is cell-based. The settings on record: DLD-1 cells, 72 hours. The method, then:
as §1

Series [1] deals with human umbilical cord vein endothelial cells. Briefly: Inhibition of proliferation of human umbilical cord vein endothelial cells (3H-thymidine incorporation). Format: cell-based. To be noted: bFGF 10 μg/l, 48 hours + 8 hours 3H-thymidine. The method, then: That is, 0.1 ml of human umbilical cord vein endothelial cells (Cell Systems Corporation) adjusted to 2×10^3 cells/well in MCDB131 medium (Chlorella Industry Co., Ltd.) containing 10 μg/l basic fibroblast cell growth factor and 10% fetal calf serum is seeded on a collagen-coated 96-well microplate (Sumitomo Bakelite Co., Ltd.) and at the same time a suitable amount of sample is added. The resultant is cultivated in an atmosphere containing 5% CO2 at 37° C. for 48 hours. Further, 1 μCi/well ^3H-tymidine is added and cultivation is performed for 8 hours. Then, the cells are collected using a cell harvester and the radioactivity incorporated into cells is measured using a scintillation counter.
When the sample contains an active substance for inhibiting the growth of angioendothelial cells, the incorporation of radioactivity into the cells is suppressed. Further, an effective concentration range of the sample is obtained from the change in radioactivity in the cells depending on the concentration of the sample.

A short description of series [2]: Solubility (physicochemical properties). As to the method:
• (1) Form: white powder • (2) Molecular formula: C24H34O3 • (Measurement of C24H35O3 by high resolution FAB mass spectrometry Calculated m/z: 371.2586 (M+H)^+, Found m/z: 371.2580) • (3) Specific optical rotation: [α]D^26−194° (c 0.1, methanol) • (4) Melting point: 55 to 58° C. • (5) Infrared absorption spectrum: The results obtained by measurement by the KBr method are as shown in FIG. 1. […] The chemical shift, multiplicity and spin coupling constant of each signal are shown in Table 1. • (9) ^13C-NMR spectrum: Measurement was performed by dissolving the substance in heavy methanol and using tetramethylsilane as an internal standard. 2. Physicochemical Properties of the Substance F-1491B • (1) Form: white powder • (2) Molecular formula: C23H32O3 • (Measurement of C23H33O3 by high resolution FAB mass spectrometry Calculated m/z: 357.2430 (M+H)^+, Found m/z: 357.2463), • (3) Specific optical rotation: [α]D^26-222° (c 0.1, methanol) • (4) Melting point: 53 to 56° C. • (5) Infrared absorption spectrum: The results obtained by measurement by the KBr method are as shown in FIG. 2. […] The chemical shift, multiplicity, and spin coupling constant of each signal are shown in Table 1. • (9) ^13C-NMR spectrum: Measurement was performed by dissolving the substance in heavy methanol and using tetramethylsilane as an internal standard. 3. Physicochemical Properties of the Substance F-1491C • (1) Form: white powder • (2) Molecular formula: C24H35O3Cl • (Measurement of C24H35O3Cl by high resolution ESI mass spectrometry Calculated m/z: 429.2172 (M+Na)^+, Found m/z: 429.2204) • (3) Ultraviolet absorption spectrum (measured in methanol): […]

Setting [3] is: in methanol, chloroform and dimethyl sulfoxide.

In the case of `CC=C(C)C1C(C=CC=C(C)C(=O)CC)C2CC(Cl)C(C)(O)CC2C2OC21C` (centres unmarked) [F-1491C], the “50% growth inhibition concentration” value with HT1080 (fibrosarcoma) is reported as greater than 100 mg/L; with K562 (leukemia), 52 mg/L; in the series on H226 (lung cancer), greater than 100 mg/L; in the series on DLD-1 (prostate cancer) it was greater than 100 mg/L; in series [1], 7.4 mg/L.
`CC=C(C)C1C(C=CC=C(C)C(C)=O)C2CCC(C)(O)CC2C2OC21C` (centres unmarked) [F-1491F]: the “50% growth inhibition concentration” value was greater than 100 mg/L with HT1080 (fibrosarcoma); 72 mg/L in the series with K562 (leukemia); greater than 100 mg/L in the series with H226 (lung cancer); greater than 100 mg/L with DLD-1 (prostate cancer); 9.3 mg/L in series [1].
In the case of `CC=C(C)C1C(C=CC=C(C)C(C)=O)C2CC(Cl)C(C)(O)CC2C2OC21C` (centres unmarked) [F-1491D], the “50% growth inhibition concentration” value in the series with HT1080 (fibrosarcoma) was greater than 100 mg/L; with K562 (leukemia), 80 mg/L; in the series with H226 (lung cancer), greater than 100 mg/L; with DLD-1 (prostate cancer), greater than 100 mg/L; in series [1], 4.6 mg/L.
For `CC=C(C)C1C(C=CC=C(C)C(C)=O)C2CC(O)C(C)(O)CC2C2OC21C` (centres unmarked) [F-1491H], the “50% growth inhibition concentration” value is reported as greater than 100 mg/L in the series with HT1080 (fibrosarcoma); 61 mg/L in the series on K562 (leukemia); greater than 100 mg/L in the series on H226 (lung cancer); greater than 100 mg/L in the series with DLD-1 (prostate cancer); 5.6 mg/L in series [1].
For `CC=C(C)C1C(C=CC=C(C)C(C)=O)C2CC3OC3(C)CC2C2OC21C` (centres unmarked) [F-1491B], the Solubility result in series [2] (setting [3]) was “Soluble”; in series [2] (in water), “hardly soluble”. Also, the “50% growth inhibition concentration” value in the series with HT1080 (fibrosarcoma) is listed as greater than 100 mg/L; in the series on K562 (leukemia), 36 mg/L; in the series on H226 (lung cancer), greater than 100 mg/L; with DLD-1 (prostate cancer), greater than 100 mg/L; in series [1], 3.4 mg/L.
Regarding `CC=C(C)C1C(C=CC=C(C)C(C)=O)C2CC(OC)C(C)(O)CC2C2OC21C` (centres unmarked) [F-1491G], the “50% growth inhibition concentration” value is greater than 100 mg/L in the series with HT1080 (fibrosarcoma); 95 mg/L in the series with K562 (leukemia); greater than 100 mg/L in the series on H226 (lung cancer); greater than 100 mg/L in the series on DLD-1 (prostate cancer); 7.7 mg/L in series [1].
As for `CC=C(C)C1C(C=CC=C(C)C(=O)CC)C2CC3OC3(C)CC2C2OC21C` (centres unmarked) [F-1491A], the Solubility result is “Soluble” in series [2] (setting [3]) and “hardly soluble” in series [2] (in water). Besides, the “50% growth inhibition concentration” value in the series with HT1080 (fibrosarcoma) is listed as greater than 100 mg/L; with K562 (leukemia), 39 mg/L; in the series on H226 (lung cancer) it was greater than 100 mg/L; in the series on DLD-1 (prostate cancer), greater than 100 mg/L; in series [1] it was 2.2 mg/L.
In the case of `CC=C(C)C1C(C=CC=C(C)C(=O)CC)C2CCC(C)(O)CC2C2OC21C` (centres unmarked) [F-1491E], the “50% growth inhibition concentration” value was greater than 100 mg/L in the series with HT1080 (fibrosarcoma); 68 mg/L with K562 (leukemia); greater than 100 mg/L in the series with H226 (lung cancer); greater than 100 mg/L with DLD-1 (prostate cancer); 3.2 mg/L in series [1].
